Measurements taken from patent EP4563579A1, “MACROCYCLIC EGFR INHIBITOR, AND PREPARATION METHOD THEREFOR AND PHARMACEUTICAL USE THEREOF” (Abbisko Therapeutics Co., Ltd., priority 2022, dated 2024).

What was measured:
[1] = system: A431 WT; assay: Cell proliferation assay (CellTiter-Glo), A431 WT; format: cell-based; settings: Homo sapiens, A-431; A431 WT cells, 72 hour incubation, CTG readout
Procedure: (§1) • DMEM Medium (Gibco, Cat#11965118) • RPMI1640 Medium (Gibco, Cat#11875119) • Fetal Bovine Serum (FBS) (GBICO, Cat#10099-141) • CellTiter-Glo® Luminescent Cell Viability Assay Kit (Promega, Cat#G7572) 96-well, Black, Clear Flat Bottom Plate (Corning®, Cat# 3603)
(§2) • SpectraMax Multimode Microplate Reader MD, 2104-0010A; • CO2 Incubator, Thermo Scientific 3100 Series; • Biosafety Cabinet, Thermo Scientific, 1300 Series A2; • Inverted Microscope, Olympus, CKX41SF; • Siemens Refrigerator, KK25E76TI.
(§3) • 1. Cell Culture and Inoculation: • (1) Harvest cells in a logarithmic growth phase and count the cells using a […]. Test cell viability using a trypan blue exclusion method to ensure that cell viability is above 90%. • (2) Adjust the cell concentration to desired final density; and add 90 µL of cell suspension to a 96-well plate. • (3) Incubate the cells overnight at 37°C, under 5% CO2 and 95% humidity in the 96-well plate. • 2. T0 Reference Data: • (1) Add 10 µL PBS to each well of the T0 plate containing cells. • (2) Thaw the CTG reagent and equilibrate the plate to room temperature for 30 minutes. • (3) Add an equal volume of CTG solution to each well. • (4) Lyse cells by shaking on an orbital shaker for 5 minutes. • (5) Leave the plate at room temperature for 20 minutes to stabilize the luminescence signal. • (6) Read the T0 […]. • 3. Compound Dilution and Addition • (1) Add a corresponding volume of DMSO to a corresponding compound powder according to the compound information sheet to prepare a 10 mM stock solution. • (2) Prepare 1000-fold and 3.16-fold diluted compound solutions. • (3) Dilute the 1000× diluted compound solution 100-fold with PBS to prepare a 10-fold compound solution, with a maximum concentration of 10 µM, nine concentrations and 3.16-fold dilution. Then add 10 µL of the drug solution concentration to individual wells of the 96-well plate seeded with cells. Test each compound concentration in triplicate wells, and the final DMSO concentration is 0.1%. • (4) Incubate the cells in the 96-well plate containing the drug compounds at 37°C, under 5% CO2, and 95% humidity for an additional 72 hour period prior to performing the CTG analysis. • 4. Fluorescence Signal Reading • (1) Thaw the CTG reagent and equilibrate the plate to room temperature for 30 minutes. • (2) Add an equal volume of CTG solution to each well. • (3) Lyse cells by shaking on an orbital shaker for 5 minutes. • (4) Leave the plate at room temperature for 20 minutes to stabilize the […]. • (5) Read fluorescence value. • 5. Data Processing
(§4) Analyze the data by using GraphPad Prism 7.0 software, and use Non-linear S-curve regression to fit the dose-response curves, to calculate the IC50 values (in nM). The specific experiment results are presented in Table 1: [formula] Table 1: Biology Test Results

[2] = system: Ba/F3 EGFR-L858R-T790M-C797S (LTC); assay: Cell proliferation assay (CellTiter-Glo), Ba/F3 LTC; format: cell-based; settings: Mus musculus, BaF3; Ba/F3 EGFR-L858R-T790M-C797S cells, 72 hour incubation, CTG readout
Procedure: as §1, §2, §3, §4

[3] = system: Ba/F3 EGFR-DEL19-T790M-C797S (DTC); assay: Cell proliferation assay (CellTiter-Glo), Ba/F3 DTC; format: cell-based; settings: Ba/F3 EGFR-DEL19-T790M-C797S cells, 72 hour incubation, CTG readout; read-out: IC50 BaF3 DTC
Procedure: as §1, §2, §3, §4

[4] = system: Ba/F3 EGFR-L858R-C797S (LC); assay: Cell proliferation assay (CellTiter-Glo), Ba/F3 LC; format: cell-based; settings: Mus musculus, BaF3; Ba/F3 EGFR-L858R-C797S cells, 72 hour incubation, CTG readout
Procedure: as §1, §2, §3, §4

[5] = system: Ba/F3 EGFR-DEL19-C797S (DC); assay: Cell proliferation assay (CellTiter-Glo), Ba/F3 DC; format: cell-based; settings: Mus musculus, BaF3; Ba/F3 EGFR-DEL19-C797S cells, 72 hour incubation, CTG readout
Procedure: as §1, §2, §3, §4

[6] = Pharmacokinetic experiment in mice; format: in vivo; settings: male, mouse; ICR mice, single oral administration (PO), 10 mg/kg, plasma
Text: The purpose of this trial is to study the pharmacokinetic behavior of some compounds of the present invention, and the administration method is: Single oral administration (PO) to ICR mice.
The compounds used in this trial are from the compounds in the specific examples of the present invention and the listed positive compounds.
ICR mice male N=9 original source: Shanghai Sippr-Bk Lab Animal Co., Ltd.
The compounds are weighed and dissolved in the corresponding solution (10% PG + 10% Solutol® + 80% pH3 citrate buffer). The mixture is then shaken well and sonicated to prepare a 1 mg/mL stock solution. Nine mice are orally administered at a dose of 10 mg/kg (or IV 2 mg/kg) after an overnight fast.
About 90 µL of blood is collected via the submandibular vein per time point, heparin sodium anticoagulant is added, the sample is placed on ice after collection, and plasma is centrifuged within 1 hour (centrifugation conditions: 8,000 rpm, 6 minutes, 2-8°C). The blood collection timepoints are 0, 0.25, 0.5, 1, 2, 4, 6, 8 and 24 h. The samples are stored in a -20°C refrigerator.
The plasma sample is 40 µL, 160 µL of ice-cold acetonitrile containing internal standard is added, vortexed for 3 minutes, and centrifuged at 11,000 rpm for 5 minutes. 100 µL of the supernatant is taken and added to 100 µL of water, 5 µL of the sample is taken and injected into LC/MS/MS for analysis.

IC50 [1] | IC50 [2] | IC50 [3] | IC50 [4] | IC50 [5] | AUC(0-t) [6] | Cmax [6] | half-life [6] | SMILES
603 nM | 12.8 nM | 17.5 nM | 21.1 nM | 30.4 nM |  |  |  | CN1CCC(C#Cc2nn3c4cc(ncc24)Nc2ccnc(n2)-c2cnn(C)c2OCC2(CCCC2)C3)C1 (centres unmarked) [Example 2, 1'-methyl-3-((1-methylpyrrolidin-3-yl)ethynyl)spiro(cyclopentane-1,6'-8-oxa-3-aza-4(6,1)-pyrazolo[4,3-c]pyridina-2(2,4)-pyrimidina-1(4,5)-pyrazolacyclooctaphane)]
822 nM | 12.4 nM | 15.6 nM | 50.3 nM | 26.8 nM |  |  |  | CN1CCC(C#Cc2nn3c4cc(ncc24)Nc2ccnc(n2)-c2cnn(C)c2OCC2(CCOCC2)C3)CC1 [Example 4, 1'-methyl-3'-((1-methylpiperidin-4-yl)ethynyl)-2,3,5,6-te trahydrospiro(pyran-4,6'-8-oxa-3-aza-4(6,1)-pyrazolo[4,3-c]pyridina-2(2,4)-pyrimidina-1(4,5)-pyrazolacyclooctaphane)]
1080 nM | 9.2 nM | 4.7 nM | 14 nM | 19.7 nM |  |  |  | CN1CCC(C#Cc2nn3c4cc(ncc24)Nc2ccnc(n2)-c2cnn(C)c2OCC2(CCC2)C3)CC1 [Example 5, 1'-methyl-3'-((1-methylpiperidin-4-yl)ethynyl)spiro(cyclobutane-1,6'-8-oxa-3-aza-4(6,1)-pyrazolo[4,3-c]pyridina-2(2,4)-pyrimidina-1(4,5)-pyrazolacyclooctaphane)]
1660 nM | 24.6 nM |  | 43.5 nM |  | 2520 ng·h/mL | 193 ng/mL | 5.6 h | CCN1CCC(C#Cc2nn3c4cc(ncc24)Nc2ccnc(n2)-c2cnn(C)c2OCC2(CCCC2)C3)CC1 [Example 7, 3'-((1-ethylpiperidin-4-yl)ethynyl)-1'-methylspiro(cyclopentane-1,6'-8-oxa-3-aza-4(6,1)-pyrazolo[4,3-c]pyridina-2(2,4)-pyrimidina-1(4,5)-pyrazolacyclooctaphane)]
499 nM | 39.4 nM | 27.8 nM | 63.5 nM | 31.5 nM |  |  |  | CN1CC(C#Cc2nn3c4cc(ncc24)Nc2ccnc(n2)-c2cnn(C)c2OCC2(CCCC2)C3)C1 [Example 8, 1'-methyl-3'-((1-methylazetidin-3-yl)ethynyl)spiro(cyclopentane-1,6'-8-oxa-3-aza-4(6,1)-pyrazolo[4,3-c]pyridina-2(2,4)-pyrimidina-1(4,5)-pyrazolacyclooctaphane)]
1920 nM | 47 nM | 18.4 nM | 62.7 nM | 32.8 nM |  |  |  | CN1CCC(F)(C#Cc2nn3c4cc(ncc24)Nc2ccnc(n2)-c2cnn(C)c2OCC2(CCCC2)C3)CC1 [Example 9, 3'-((4-fluoro-1-methylpiperidin-4-yl)ethynyl)-1'-methyls piro(cyclopentane-1,6'-8-oxa-3-aza-4(6,1)-pyrazolo[4,3-c]pyridina-2(2,4)-pyrimidina-1(4,5)-pyrazolacyclooctaphane)]
807 nM | 133 nM | 92.2 nM | 187 nM | 128 nM |  |  |  | CN1CCC(F)(C#Cc2nn3c4cc(ncc24)Nc2ccnc(n2)-c2cnn(C)c2OCC2(CCOCC2)C3)CC1 [Example 11, 3'-((4-fluoro-1-methylpiperidin-4-yl)ethynyl)-1'-methyl-2,3,5,6-tetrahydrospiro(pyran-4,6'-8-oxa-3-aza-4(6,1)-pyrazolo[4,3-c]pyridina-2(2,4)-pyrimidina-1(4,5)-pyrazolacyclooctaphane)]
171 nM | 4.7 nM | 3.4 nM | 15.8 nM | 7.1 nM |  |  |  | Cn1ncc2c1OCC1(CCCC1)Cn1nc(N3CC[C@@H](CO)C3)c3cnc(cc31)Nc1ccnc-2n1 [Example 21, (R)-(1-(1'-methylspiro(cyclopentane-1,6'-8-oxa-3-aza-4(6,1)-pyrazolo[4,3-c]pyridina-2(2,4)-pyrimidina-1(4,5) -pyrazolacyclooctaphane)-3 '-yl)pyrrolidin-3-yl)methanol]
409 nM | 5.9 nM |  | 13.2 nM |  | 2340 ng·h/mL | 503 ng/mL | 3 h | Cn1ncc2c1OCC1(CCCC1)Cn1nc(N3CC[C@@H](O)C3)c3cnc(cc31)Nc1ccnc-2n1 [Example 22, (R)-1-(1'-methylspiro(cyclopentane-1,6'-8-oxa-3-aza-4(6,1)-pyrazolo[4,3-c]pyridina-2(2,4)-pyrimidina-1(4,5)-pyrazolacyclooctaphane)-3' -yl)pyrrolidin-3-ol]
771 nM | 8.1 nM | 3.5 nM | 19.5 nM | 7.8 nM |  |  |  | Cn1ncc2c1OCC1(CCCC1)Cn1nc(N3CC[C@](C)(O)C3)c3cnc(cc31)Nc1ccnc-2n1 [Example 23, (S)-3-methyl-1-(1'-methylspiro(cyclopentane-1,6'-8-oxa-3-aza-4(6,1)-pyrazolo[4,3-c]pyridina-2(2,4)-pyrimidina-1(4,5)-pyrazolacyclooctaphane)-3'-yl)pyrrolidin-3-ol]
378 nM | 6.1 nM | 0.7 nM |  | 4.4 nM |  |  |  | Cn1ncc2c1OCC1(CCCC1)Cn1nc(N3CC[C@@](C)(O)C3)c3cnc(cc31)Nc1ccnc-2n1 [Example 24, (R)-3-methyl-1-(1'-methylspiro(cyclopentane-1,6'-8-oxa-3-aza-4(6,1)-pyrazolo[4,3-c]pyridina-2(2,4)-pyrimidina-1(4,5)-pyrazolacyclooctaphane)-3'-yl)pyrrolidin-3-ol]
320 nM | 0.7 nM |  | 2.1 nM |  | 4940 ng·h/mL | 1350 ng/mL | 3.5 h | Cn1ncc2c1OCC1(CCCC1)Cn1nc(N3CC[C@H](CS(=O)(=O)C4CC4)C3)c3cnc(cc31)Nc1ccnc-2n1 [Example 40, (S)-3'-(3-((cyclopropylsulfonyl)methyl)pyrrolidin-1-yl)-1'-methylspiro(cyclopentane-1,6'-8-oxa-3-aza-4(6,1)-pyrazolo[4,3-c]pyridina-2(2, 4)-pyrimidina-1(4,5)-pyrazolacyclooctaphane)]
